# In patent publication US20080194585A1, “Fungicidal Pyrazine Derivatives” (priority 2005, published 2008):
# Marks after values point to notes of the source that are not given here.
# Key:
# [1] = test system: Septoria tritici; assay: Test J: wheat leaf blotch, preventive spray on wheat seedlings; format: in vivo
# Source text: A dash (-) indicates no test results.
# [2] = test system: Plasmopara viticola; assay: Test D: grape downy mildew, spray after inoculation of grape seedlings; format: in vivo
# Source text: Upon removal, disease ratings were made. […] A dash (-) indicates no test results.
# [3] = test system: Pythium aphanidermatum; assay: Test A: bluegrass pythium blight, preventive spray on bluegrass seedlings
# [4] = test system: Rhizoctonia oryzae; assay: Test G: turf brown patch, preventive spray on creeping bent grass seedlings
# Description: (the causal agent of turf brown patch) and incubated in a saturated atmosphere at 27° C. for 24 h, and then moved to a growth chamber at 27° C. for 5 days, after which disease ratings were made.
# [5] = test system: Phytophthora infestans; assay: whole plant or invertebrate; format: in vivo
# [6] = test system: Puccinia recondita f. sp. tritici; assay: Test K: wheat leaf rust, preventive spray on wheat seedlings
# [7] = test system: Septoria nodorum; assay: Test H: wheat glum blotch, preventive spray on wheat seedlings
# Description: (the causal agent of wheat glum blotch) and incubated in a saturated atmosphere at 20° C. for 48 h, and then moved to a growth chamber at 22° C. for 5 days, after which disease ratings were made.
# [8] = test system: Colletotrichum orbiculare; assay: Test B: cucumber Colletotrichum anthracnose, preventive spray on cucumber seedlings
# [9] = test system: Botrytis cinerea; assay: Test E: tomato botrytis, preventive spray on tomato seedlings
# [10] = test system: Sclerotinia sclerotiorum; assay: Test C: cucumber white mold, preventive spray on cucumber seedlings
# [11] = test system: Erysiphe graminis f. sp. tritici; assay: Test L: wheat powdery mildew, preventive spray on wheat seedlings
SMILES,Test J disease control rating ([1]; 200 ppm),Test D disease control rating ([2]; 200 ppm),Test A disease control rating ([3]; 200 ppm),Test G disease control rating ([4]; 200 ppm),Test F disease control rating ([5]; 200 ppm),Test K disease control rating ([6]; 200 ppm),Test H disease control rating ([7]; 200 ppm),Test B disease control rating ([8]; 200 ppm),Test E disease control rating ([9]; 200 ppm),Test J disease control rating ([1]; 40 ppm (*)),Test D disease control rating ([2]; 40 ppm (*)),Test A disease control rating ([3]; 40 ppm (*)),Test G disease control rating ([4]; 40 ppm (*)),Test F disease control rating ([5]; 40 ppm (*)),Test K disease control rating ([6]; 40 ppm (*)),Test H disease control rating ([7]; 40 ppm (*)),Test B disease control rating ([8]; 40 ppm (*)),Test E disease control rating ([9]; 40 ppm (*)),Test C disease control rating ([10]; 40 ppm (*)),Test L disease control rating ([11]; 40 ppm (*)),other results
CC(C)Cn1c(-c2ccccc2F)c(Cl)nc(-n2cncn2)c1=O [compound 175],98%,12%,0%,91%,0%,60%,99%,0%,99%,–,–,–,–,–,–,–,–,–,–,–,Test C disease control rating ([10]; 200 ppm): 0%; Test L disease control rating ([11]; 200 ppm): 92%
COc1ccccc1-c1c(Cl)nc(-n2cccn2)c(=O)n1CC(C)C [compound 176],94%,4%,0%,56%,0%,0%,73%,0%,99%,–,–,–,–,–,–,–,–,–,–,–,Test C disease control rating ([10]; 200 ppm): 0%; Test L disease control rating ([11]; 200 ppm): 0%
CC(C)(C)CCn1c(-c2c(F)cccc2F)c(Cl)nc(-n2cccn2)c1=O [compound 182],100%,0%,0%,31%,0%,85%,0%,0%,91%,–,–,–,–,–,–,–,–,–,–,–,Test C disease control rating ([10]; 200 ppm): 0%; Test L disease control rating ([11]; 200 ppm): 85%
Cn1c(-c2c(F)cccc2F)c(Cl)nc(-n2cccn2)c1=O [compound 185],–,–,–,–,–,–,–,–,–,8* %,8* %,0* %,0* %,0* %,0* %,0* %,0* %,81* %,0* %,90* %,–
CSCC(C)n1c(-c2c(F)cccc2F)c(Cl)nc(-n2cccn2)c1=O (stereo not drawn) [compound 198],–,–,–,–,–,–,–,–,–,0* %,8* %,0* %,0* %,0* %,0* %,0* %,0* %,0* %,0* %,0* %,–
CSCC(C)n1c(-c2c(F)cccc2F)c(Cl)nc(-n2cncn2)c1=O (stereo not drawn) [compound 199],–,–,–,–,–,–,–,–,–,1* %,4* %,0* %,0* %,0* %,0* %,0* %,0* %,0* %,0* %,0* %,–
CC(CS(C)(=O)=O)n1c(-c2c(F)cccc2F)c(Cl)nc(-n2cccn2)c1=O (stereo not drawn) [compound 200],–,–,–,–,–,–,–,–,–,9* %,8* %,0* %,0* %,0* %,0* %,0* %,0* %,0* %,0* %,0* %,–
CC(CS(C)(=O)=O)n1c(-c2c(F)cccc2F)c(Cl)nc(-n2cncn2)c1=O (stereo not drawn) [compound 201],–,–,–,–,–,–,–,–,–,0* %,0* %,0* %,0* %,0* %,0* %,0* %,0* %,0* %,0* %,0* %,–
Cc1cccc(C)c1-c1c(Cl)nc(-n2cccn2)c(=O)n1CC(C)C [compound 202],100%,12%,45%,99%,0%,100%,99%,93%,100%,–,–,–,–,–,–,–,–,–,–,–,Test C disease control rating ([10]; 200 ppm): 0%; Test L disease control rating ([11]; 200 ppm): 99%
